According to patent US20130090494A1, “TETRAKIS[BIS(DIHYDROXYPHOSPHORYL)METHYL]CALIX[4]ARENE OR ITS SODIUM SALT THEREOF AS FIBRIN POLYMERIZATION INHIBITORS” (priority 2010, published 2013):
Entries after “also recorded” stand apart in the source; their conditions may differ. Where a name gives a salt, the structure may show the parent alone.

What was measured:
fibrin polymerization = molecular target: T1, fibrin polymerization (Homo sapiens, UniProt P02671+P02675+P02679); experiment: Turbidity analysis of fibrin polymerization (system not specified); type: biochemical; conditions: applicant's own experiments
T1 sequence (P02671 20-644 isoform P02671-2 limits assumed): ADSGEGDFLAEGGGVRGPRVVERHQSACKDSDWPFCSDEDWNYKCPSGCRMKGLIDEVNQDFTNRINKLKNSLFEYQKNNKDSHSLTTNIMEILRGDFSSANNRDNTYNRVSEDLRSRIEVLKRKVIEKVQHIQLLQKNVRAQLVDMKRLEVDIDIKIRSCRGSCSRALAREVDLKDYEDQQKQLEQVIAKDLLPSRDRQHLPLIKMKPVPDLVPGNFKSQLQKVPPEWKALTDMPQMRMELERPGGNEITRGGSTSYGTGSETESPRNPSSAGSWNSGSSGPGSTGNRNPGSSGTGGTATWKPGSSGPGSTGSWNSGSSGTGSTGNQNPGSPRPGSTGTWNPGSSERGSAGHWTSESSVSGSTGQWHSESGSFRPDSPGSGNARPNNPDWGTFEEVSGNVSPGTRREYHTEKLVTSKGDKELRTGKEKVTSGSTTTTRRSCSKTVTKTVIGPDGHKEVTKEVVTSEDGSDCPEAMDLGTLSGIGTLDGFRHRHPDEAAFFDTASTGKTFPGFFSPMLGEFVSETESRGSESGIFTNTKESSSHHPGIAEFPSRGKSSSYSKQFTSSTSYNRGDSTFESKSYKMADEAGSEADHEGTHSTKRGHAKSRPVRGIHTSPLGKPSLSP
T1 sequence (P02675 45-491 limits assumed): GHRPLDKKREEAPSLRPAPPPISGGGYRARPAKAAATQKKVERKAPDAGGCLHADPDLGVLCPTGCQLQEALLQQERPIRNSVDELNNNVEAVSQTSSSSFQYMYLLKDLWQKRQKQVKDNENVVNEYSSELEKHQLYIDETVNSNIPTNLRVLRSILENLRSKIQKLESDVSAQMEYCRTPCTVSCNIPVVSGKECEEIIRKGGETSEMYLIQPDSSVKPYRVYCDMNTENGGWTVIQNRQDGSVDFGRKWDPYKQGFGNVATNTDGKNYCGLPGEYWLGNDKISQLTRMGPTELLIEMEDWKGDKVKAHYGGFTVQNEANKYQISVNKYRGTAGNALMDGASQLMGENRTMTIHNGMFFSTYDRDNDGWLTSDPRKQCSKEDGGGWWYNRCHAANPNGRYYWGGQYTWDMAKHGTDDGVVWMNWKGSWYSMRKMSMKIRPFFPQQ
T1 sequence (P02679 27-437 isoform P02679-2 limits assumed): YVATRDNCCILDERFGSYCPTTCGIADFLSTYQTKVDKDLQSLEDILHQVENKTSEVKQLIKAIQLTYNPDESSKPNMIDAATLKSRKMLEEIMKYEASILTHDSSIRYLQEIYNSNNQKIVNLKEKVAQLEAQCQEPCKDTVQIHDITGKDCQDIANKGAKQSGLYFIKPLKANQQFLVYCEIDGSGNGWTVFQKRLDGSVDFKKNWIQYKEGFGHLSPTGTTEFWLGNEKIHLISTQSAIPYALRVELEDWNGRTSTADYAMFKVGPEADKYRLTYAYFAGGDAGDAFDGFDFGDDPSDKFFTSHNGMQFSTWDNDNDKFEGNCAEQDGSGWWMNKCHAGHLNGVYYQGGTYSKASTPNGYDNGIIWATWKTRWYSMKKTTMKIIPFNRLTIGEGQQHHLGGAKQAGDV
Excerpt: Furthermore, because of electro neutrality of the declared calixarene-145 molecule, it may be more suitable for injection to a living organism as an inhibitor of fibrin polymerization and the process of blood clotting, as well.

[1] = molecular target: T2, desAABB fibrin monomer polymerization (Homo sapiens, UniProt P02671+P02675+P02679); experiment: Turbidity analysis of desAABB fibrin monomer polymerization; type: biochemical; conditions: for final (maximum) turbidity of fibrin clot (Δh) / lag-time (τ) / maximum rate of fibrin polymerization (Vmax): desAABB fibrin polymerization medium, 0.5 μM, FIG. 2
T2 construct: DesAABB fibrin monomer was prepared in 0.02 M acetic acid was prepared during reaction fibrinogen+thrombin; The fibrinogen was prepared by sodium sulfate precipitation from human plasma; from tissue; host or cells: human blood plasma; fibrinogen converted with thrombin
T2 sequence (P02671 36-866 limits assumed): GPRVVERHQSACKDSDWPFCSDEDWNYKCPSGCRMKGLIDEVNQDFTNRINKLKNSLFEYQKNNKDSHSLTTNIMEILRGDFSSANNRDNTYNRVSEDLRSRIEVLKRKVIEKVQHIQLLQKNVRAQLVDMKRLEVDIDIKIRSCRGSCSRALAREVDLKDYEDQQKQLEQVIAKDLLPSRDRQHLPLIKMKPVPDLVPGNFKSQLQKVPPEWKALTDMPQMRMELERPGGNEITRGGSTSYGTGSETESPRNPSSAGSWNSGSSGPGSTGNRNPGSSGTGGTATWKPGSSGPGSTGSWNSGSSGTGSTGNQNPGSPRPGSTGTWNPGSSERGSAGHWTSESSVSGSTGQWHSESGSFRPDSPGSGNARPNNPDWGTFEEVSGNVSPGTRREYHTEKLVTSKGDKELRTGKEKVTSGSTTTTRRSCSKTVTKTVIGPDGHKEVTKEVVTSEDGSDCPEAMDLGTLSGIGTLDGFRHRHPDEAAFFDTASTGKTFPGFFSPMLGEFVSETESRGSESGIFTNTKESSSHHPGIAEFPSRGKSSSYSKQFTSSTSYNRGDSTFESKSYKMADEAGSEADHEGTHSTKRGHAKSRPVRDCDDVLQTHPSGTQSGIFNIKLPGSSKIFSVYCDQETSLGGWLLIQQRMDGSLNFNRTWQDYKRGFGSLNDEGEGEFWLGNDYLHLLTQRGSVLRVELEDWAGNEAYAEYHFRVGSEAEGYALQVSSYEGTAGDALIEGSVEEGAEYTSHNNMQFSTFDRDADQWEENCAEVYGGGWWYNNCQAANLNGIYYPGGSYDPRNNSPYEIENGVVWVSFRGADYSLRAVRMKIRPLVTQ
T2 sequence (P02675 45-491 limits assumed): T1 sequence (P02675 45-491 limits assumed)
T2 sequence (P02679 27-453): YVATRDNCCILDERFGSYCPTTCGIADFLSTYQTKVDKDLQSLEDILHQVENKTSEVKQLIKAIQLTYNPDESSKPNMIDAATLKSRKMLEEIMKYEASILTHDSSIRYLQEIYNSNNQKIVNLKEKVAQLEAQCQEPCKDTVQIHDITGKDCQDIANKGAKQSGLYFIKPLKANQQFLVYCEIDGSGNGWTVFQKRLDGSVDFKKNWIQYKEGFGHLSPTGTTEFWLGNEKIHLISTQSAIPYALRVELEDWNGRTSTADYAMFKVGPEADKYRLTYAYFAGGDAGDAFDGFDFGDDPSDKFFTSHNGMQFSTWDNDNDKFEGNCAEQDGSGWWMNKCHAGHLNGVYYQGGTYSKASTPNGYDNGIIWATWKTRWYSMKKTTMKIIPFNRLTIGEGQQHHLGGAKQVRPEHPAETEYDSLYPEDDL
Description: (§1) The fibrin polymerization by the action of thrombin on fibrinogen consists of two reactions: 1) thrombin-catalyzed conversion of fibrinogen to fibrin and 2) polymerization of the fibrin monomer to form three-dimensional network, which is the framework of thrombus.
(§2) The turbidity analysis of desAABB fibrin polymerization and of fibrin polymerization in the fibrinogen+thrombin reaction in the present and the absent of declared calixarenes C-192 and C-145
(§3) The fibrinogen was prepared by sodium sulfate precipitation from human plasma. DesAABB fibrin monomer was prepared in 0.02 M acetic acid was prepared during reaction fibrinogen+thrombin [10]. Polymerization of fibrin desAA and desAABB was studied in the polymerization medium containing at a low concentration thrombin at pH 5.3 [7]. In the experience of the system fibrinogen+thrombin in polymerization medium to add declared calixarene C-192 at a concentration of 0.5 mM.
The declared calixarene C-192 and C-145 was added on the desAABB fibrin polymerization medium at a concentration of 0.5 μM.

[2] = tested on: human blood plasma coagulation (internal pathway); experiment: Activated partial thromboplastin time (APTT) of human blood plasma
Excerpt: (§4) The measuring of prothrombin time (PT) and activated partial thromboplastin time (APTT) for coagulation of human plasma in the presence of calixarene C-192.
(§5) The effects of calixarene C-192 on the coagulation of human blood plasma were studied using a coagulometer (CT 2410 ‘Solar’, Belarus).
The activated partial thromboplastin time calculated by the method. In the APTT-test comparing the formation of the fibrin clot in control samples: pure blood plasma specimens and blood plasma, in which the solute of calixarene C-192 at concentration of 50 μM. The prothrombin ratio Calculated by formula (1) equals 5.4.

[3] = molecular target: T3, fibrin polymerization in the thrombin-fibrinogen reaction (Homo sapiens, UniProt P02671+P02675+P02679); experiment: Turbidity analysis of fibrin polymerization in the thrombin-fibrinogen reaction; type: biochemical
T3 construct: The fibrinogen was prepared by sodium sulfate precipitation from human plasma; from tissue; host or cells: human blood plasma
T3 sequence (P02671 20-644 isoform P02671-2 limits assumed): T1 sequence (P02671 20-644 isoform P02671-2 limits assumed)
T3 sequence (P02675 45-491 limits assumed): T1 sequence (P02675 45-491 limits assumed)
T3 sequence (P02679 27-437 isoform P02679-2 limits assumed): T1 sequence (P02679 27-437 isoform P02679-2 limits assumed)
Description: as §1, §2, §3

mice = experiment: Acute toxicity in healthy adult mice; conditions: mouse, in vivo
[4] = Acute toxicity in healthy adult mice; conditions: mouse, in vivo, oral; healthy adult mice, perorally
[5] = tested on: human blood plasma coagulation (outer pathway); experiment: Prothrombin time (PT) of human blood plasma
Description: as §4, §5
Using coagulometer measured the prothrombin ratio, which is calculated using the formula: […]
where: PR—prothrombin ratio; PTe—prothrombin time in the investigating blood plasma; PTc—prothrombin time in the control blood plasma.
The prothrombin time were calculated using the method. The dissolved calixarene C-192 at concentration of 50 μM was added to cuvette in the experience. The prothrombin ratio calculating by formula (I) equals 1.6.

[6] = molecular target: T4, fibrin protofibril formation (Homo sapiens, UniProt P02671+P02675+P02679); experiment: Transmission electron microscopy of fibrin formed in the thrombin-fibrinogen reaction; type: biochemical; conditions: 50000 magnification, FIG. 4
T4 construct: The fibrinogen was prepared by sodium sulfate precipitation from human plasma; from tissue; host or cells: human blood plasma
T4 sequence (P02671 20-644 isoform P02671-2 limits assumed): T1 sequence (P02671 20-644 isoform P02671-2 limits assumed)
T4 sequence (P02675 45-491 limits assumed): T1 sequence (P02675 45-491 limits assumed)
T4 sequence (P02679 27-437 isoform P02679-2 limits assumed): T1 sequence (P02679 27-437 isoform P02679-2 limits assumed)
Excerpt: The study of desAABB fibrin polymerization in the thrombin-fibrinogen reaction by transmission electron microscopy in the present and the absent of declared calixarenes C-192 and C-145
The analysis of the electron micrographs of the fibrin formed in the fibrinogen+thrombin reaction at different time intervals after the polymerization process beginning in the absence of calixarene C-192 (FIG. 4, A and B) and in the presence of calixarene C-192 (FIG. 4, C, D).
The samples of polymerizing fibrin produced in the thrombin-fibrinogen reaction in the absence or the presence of calixarene C-192 were taken out of the reaction medium at various times, placed on a carbon-coated grid for 2 min and then stained with 1% (w/v) uranyl acetate for 1 min. Transmission electron microscopy was performed with an H-600 electron microscope (Hitachi, Tokyo, Japan). Electron micrographs were obtained at −50 000 magnification.

[7] = normal human blood plasma, FIG. 3
[8] = fibrinogen+thrombin system, C-192 at 0.5 mM, FIG. 1

For `O=P(O)(O)C(c1cc2c(O)c(c1)Cc1cc(C(P(=O)(O)O)P(=O)(O)O)cc(c1O)Cc1cc(C(P(=O)(O)O)P(=O)(O)O)cc(c1O)Cc1cc(C(P(=O)(O)O)P(=O)(O)O)cc(c1O)C2)P(=O)(O)O` [calixarene C-145, octasodium salt of 5,11,17,23-tetrakis [bis](dihydroxyphosphoryl)methyl calix[4]arene], the IC50 (fibrin polymerization) was 2500 nM, the “final (maximum) turbidity of fibrin clot (Δh)” value ([1]; listed as C-145) was “significantly decreased” and the “lag-time (τ)” value ([1]; listed as C-145) was “increases; also recorded: increased significantly”. For the same molecule, the “maximum rate of fibrin polymerization (Vmax)” value (“maximum rate” for short) ([1]; listed as C-145) was “significantly decreased”.
With `O=P(O)(O)C(c1cc2c(O)c(c1)Cc1cc(C(P(=O)(O)O)P(=O)(O)O)cc(c1O)Cc1cc(C(P(=O)(O)O)P(=O)(O)O)cc(c1O)Cc1cc(C(P(=O)(O)O)P(=O)(O)O)cc(c1O)C2)P(=O)(O)O` [calixarene C-192, 5,11,17,23-tetrakis[bis(dihydroxyphosphoryl)methyl]calix[4]arene] the “final (maximum) turbidity of fibrin clot (Δh)” value ([1]; listed as C-192) was “decreased”, the “lag-time (τ)” value ([1]; listed as C-192) was “increased significantly” and the “maximum rate” value ([1]; listed as C-192) was “decreased”. The IC50 ([1]; fibrin monomer polymerization) was 1000 nM, the “prothrombin ratio calculated by formula (1) in the APTT-test” value ([2]; APTT-test, human plasma, 50 μM) was 5.4 and the “concentration that doubles the APTT” value [2, 7] was 1.7·10^−5 M. For the same molecule, the “final turbidity of fibrin clot (Δh)” value [3, 8] was “decreased; also recorded: reduced”, the “lag-time (τ)” value [3, 8] was “increases; also recorded: significantly increased” and the “maximum rate” value [3, 8] was “significantly decreased; also recorded: greatly reduced”. For the same molecule, the IC50 ([3]; turbidity analysis, thrombin-fibrinogen reaction) was 500 nM, the toxicity class (mice) was “median toxic compound” and the LD50 [4] was 780 mg/kg. The “concentration that doubles the prothrombin time (PT)” value [5, 7] was 7.0·10^−5 M, the “prothrombin ratio (PR=PTe/PTc)” value ([5]; prothrombin time, human plasma, 50 μM) was 1.6 and the “effect on fibrin polymerization stage seen by electron microscopy” value [6] was “inhibits the first stage of fibrin polymerization protofibril formation; also recorded: inhibits the first stage of fibrin polymerization protofibril building”.
